In article PMC8361756, “Treatment of Cardiovascular Dysfunction With PDE5-Inhibitors – Temperature Dependent Effects on Transport and Metabolism of cAMP and cGMP” (Frontiers in Physiology, 2021):
Read-outs that look alike come from different tables or passages of the source.

Assays:
[1] = tested on: PDE3; conditions: for IC25–IC75 interval PDE3: concentration needed to increase inhibition from 25% to 75%; for IC50: read-out: IC50 PDE3, 5 μM cAMP, 30 min; for Ki: read-out: Ki PDE3-inhibition, Cheng-Prusoff from IC50
Description: (§1) The assays were performed in triplicates at three different days. […] The reaction was started by adding either a solution containing 0.016 units/μg protein of PDE3 (Abcam, Cambridge United Kingdom), or 0.022 units/μg protein of PDE5 (Sigma-Aldrich, St. Louis, MO, United States), to the Eppendorf tubes. Parallels for cAMP-metabolism included PDE3 only and parallels for cGMP-metabolism included PDE5 only. Control samples were free of drug and was either with or without PDE3 or PDE5. This was done to assure that only the relevant PDE was responsible for breakdown of the cyclic nucleotide, as no other enzyme nor cellular material was added to the incubations. The incubation time was 30 min (see Table 2). Reaction was stopped by adding methanol to the tubes. Internal standard of cGMP/GMP or cAMP/AMP (Sigma-Aldrich, St. Louis, MO, United States, Germany and Toronto Research Chemicals Inc., Toronto, ON, Canada) were added to each sample. Five samples contained only known concentrations of cGMP/GMP or cAMP/AMP and served as calibrators. Samples were analyzed for cGMP/GMP and cAMP/AMP content, using MS.

[2] = target: PDE5 (Homo sapiens, UniProt O76074); conditions: concentration needed to increase inhibition from 25% to 75%
Description: as §1

[3] = target: cGMP-efflux (ABCC5) (Homo sapiens, UniProt O15440); format: biochemical; conditions: for IC25–IC75 interval cGMP-efflux: concentration needed to increase inhibition from 25% to 75%
Sequence of cGMP-efflux (ABCC5) (O15440 whole entry): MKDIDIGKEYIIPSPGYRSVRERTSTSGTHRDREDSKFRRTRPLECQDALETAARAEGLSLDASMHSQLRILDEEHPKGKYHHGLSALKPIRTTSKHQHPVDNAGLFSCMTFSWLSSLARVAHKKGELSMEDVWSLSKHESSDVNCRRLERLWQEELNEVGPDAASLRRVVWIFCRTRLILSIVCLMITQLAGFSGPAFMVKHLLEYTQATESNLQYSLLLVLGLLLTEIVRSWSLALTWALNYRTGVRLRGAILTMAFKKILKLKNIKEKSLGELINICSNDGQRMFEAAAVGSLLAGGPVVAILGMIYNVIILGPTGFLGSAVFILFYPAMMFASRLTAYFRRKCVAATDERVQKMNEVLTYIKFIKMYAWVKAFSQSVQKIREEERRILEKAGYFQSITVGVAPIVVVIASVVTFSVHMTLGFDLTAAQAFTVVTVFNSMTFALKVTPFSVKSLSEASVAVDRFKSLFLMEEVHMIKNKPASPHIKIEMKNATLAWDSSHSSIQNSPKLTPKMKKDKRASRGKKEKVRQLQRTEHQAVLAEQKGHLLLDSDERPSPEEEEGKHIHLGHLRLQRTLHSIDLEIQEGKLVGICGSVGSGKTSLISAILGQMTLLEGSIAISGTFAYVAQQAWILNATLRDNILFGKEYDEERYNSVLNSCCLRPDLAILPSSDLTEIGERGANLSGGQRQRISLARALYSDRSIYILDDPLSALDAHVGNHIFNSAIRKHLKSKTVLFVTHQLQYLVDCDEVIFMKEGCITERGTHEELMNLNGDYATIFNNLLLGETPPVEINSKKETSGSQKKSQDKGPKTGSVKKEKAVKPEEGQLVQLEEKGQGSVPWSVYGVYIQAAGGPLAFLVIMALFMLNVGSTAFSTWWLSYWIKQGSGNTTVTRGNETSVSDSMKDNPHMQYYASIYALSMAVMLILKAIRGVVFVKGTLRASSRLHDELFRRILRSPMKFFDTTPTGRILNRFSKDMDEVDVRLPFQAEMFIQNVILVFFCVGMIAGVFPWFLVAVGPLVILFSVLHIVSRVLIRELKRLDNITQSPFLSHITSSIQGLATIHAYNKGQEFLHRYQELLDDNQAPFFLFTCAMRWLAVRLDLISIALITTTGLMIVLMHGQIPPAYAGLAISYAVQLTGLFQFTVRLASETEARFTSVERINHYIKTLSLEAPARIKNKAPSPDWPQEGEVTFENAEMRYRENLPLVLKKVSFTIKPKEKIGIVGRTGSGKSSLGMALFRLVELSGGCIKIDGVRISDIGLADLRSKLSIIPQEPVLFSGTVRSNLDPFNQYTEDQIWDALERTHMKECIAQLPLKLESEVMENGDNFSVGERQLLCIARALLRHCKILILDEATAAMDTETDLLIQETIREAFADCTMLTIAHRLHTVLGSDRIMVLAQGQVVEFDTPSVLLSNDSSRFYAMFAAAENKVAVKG
Description: (§2) Cellular extrusion was determined using the inside-out vesicle (IOV) method where erythrocytes from healthy, human donors were sampled. […] The erythrocytes were separated from plasma by centrifugation and washed. […] The membrane vesiculation was initiated by adding […] buffer to the cell suspension. After centrifugation, the suspension was forced through a syringe needle to enhance homogenization of the membranes. IOVs were separated from right side out vesicles (ROV) and unsealed erythrocyte membranes (ghosts) by ultracentrifugation overnight using a density gradient. The uppermost band was collected, washed, and resuspended. […] Batches of IOVs used in the parallels were made eight times, including blood from a total of 35 healthy donors.
(§3) The incubation solutions also included radioactive labeled [^3H]-cGMP and [^3H]-cAMP (Perkin Elmer, Boston, MA, United States), at a concentration of, respectively, 2 μM and 20 μM. […] Incubation time of 60 min was chosen to ensure sufficient quality of the samples for each parallel (Table 2). The transport was stopped by adding ice cold buffer. The IOVs were then filtered through a nitrocellulose membrane (Bio-Rad Laboratories, Feldkirchen, Germany), and the membrane was dried. The dried membranes were later added scintillation fluid and radioactivity was measured using a Packard TopCount NXT (Packard, Downers Grove, IL, United States).
(§4) Experiments determined total ATP-dependent cellular efflux of cGMP or cAMP from IOVs.

[4] = ref Walker (1999); cited from earlier work
[5] = target: T1, cAMP-efflux (ABCC4) (Homo sapiens, UniProt O15439); assay: biochemical; format: biochemical; conditions: for Inhibition of cAMP-efflux: 1.00 nM to 1.00 mM; for Inhibition of cAMP-efflux / IC50: 60 min, IOV; for IC25–IC75 interval cAMP-efflux: concentration needed to increase inhibition from 25% to 75%; for IC50: 20 μM [3H]-cAMP; for Ki: Cheng-Prusoff from IC50
T1 construct: from tissue; host or cells: human erythrocyte membranes (inside-out vesicles), pooled donors
T1 sequence (O15439 1-1325): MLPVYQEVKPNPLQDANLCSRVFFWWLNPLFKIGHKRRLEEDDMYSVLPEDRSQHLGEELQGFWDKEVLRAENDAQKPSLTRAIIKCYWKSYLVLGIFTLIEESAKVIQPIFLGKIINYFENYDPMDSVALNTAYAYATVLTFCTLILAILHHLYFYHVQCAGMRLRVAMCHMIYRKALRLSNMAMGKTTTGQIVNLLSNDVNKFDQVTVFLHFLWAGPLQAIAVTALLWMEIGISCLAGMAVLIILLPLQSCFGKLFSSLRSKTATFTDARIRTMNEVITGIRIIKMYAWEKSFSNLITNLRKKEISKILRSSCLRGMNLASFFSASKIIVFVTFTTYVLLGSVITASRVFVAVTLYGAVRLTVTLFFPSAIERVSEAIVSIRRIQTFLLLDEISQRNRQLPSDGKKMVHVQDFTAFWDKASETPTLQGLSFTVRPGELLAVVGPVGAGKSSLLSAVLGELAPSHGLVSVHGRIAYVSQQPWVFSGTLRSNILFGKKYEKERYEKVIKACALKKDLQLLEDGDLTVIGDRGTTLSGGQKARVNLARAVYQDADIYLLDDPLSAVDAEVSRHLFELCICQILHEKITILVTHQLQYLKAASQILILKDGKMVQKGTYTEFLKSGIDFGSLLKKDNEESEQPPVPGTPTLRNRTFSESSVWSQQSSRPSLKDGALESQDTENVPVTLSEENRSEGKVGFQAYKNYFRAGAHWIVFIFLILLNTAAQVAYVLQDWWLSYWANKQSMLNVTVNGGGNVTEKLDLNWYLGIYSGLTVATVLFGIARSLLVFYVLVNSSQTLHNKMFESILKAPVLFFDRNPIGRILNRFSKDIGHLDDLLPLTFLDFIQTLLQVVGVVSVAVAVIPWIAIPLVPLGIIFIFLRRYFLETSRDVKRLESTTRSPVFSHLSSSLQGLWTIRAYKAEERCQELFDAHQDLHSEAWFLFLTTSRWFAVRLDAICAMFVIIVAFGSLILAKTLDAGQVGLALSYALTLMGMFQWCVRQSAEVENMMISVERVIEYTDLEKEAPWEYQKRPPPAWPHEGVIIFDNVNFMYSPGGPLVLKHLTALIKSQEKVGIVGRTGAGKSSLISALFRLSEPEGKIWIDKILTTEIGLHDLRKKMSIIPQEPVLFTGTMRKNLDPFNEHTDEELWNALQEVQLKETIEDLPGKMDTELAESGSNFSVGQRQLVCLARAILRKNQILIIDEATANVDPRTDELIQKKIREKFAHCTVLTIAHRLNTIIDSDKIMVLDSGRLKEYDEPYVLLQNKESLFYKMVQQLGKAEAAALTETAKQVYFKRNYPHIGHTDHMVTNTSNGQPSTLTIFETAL
Description: as §2, §3, §4

Compound: CCCc1nn(C)c2c(=O)[nH]c(-c3cc(S(=O)(=O)N4CCN(C)CC4)ccc3OCC)nc12 [Sildenafil]
- IC25–IC75 interval PDE5 ([2]; 20°C): 0.132 ± 0.048 µM
- IC25–IC75 interval PDE5 ([2]; 20°C, listed as sildenafil): 0.132 ± 0.048 µM
- IC25–IC75 interval PDE5 ([2]; 24°C): 0.098 ± 0.012 µM
- IC25–IC75 interval PDE5 ([2]; 24°C, listed as sildenafil): 0.098 ± 0.012 µM
- IC25–IC75 interval PDE5 ([2]; 28°C): 0.083 ± 0.008 µM
- IC25–IC75 interval PDE5 ([2]; 32°C): 0.060 ± 0.006 µM
- IC25–IC75 interval PDE5 ([2]; 34°C): 0.055 ± 0.004 µM
- IC25–IC75 interval PDE5 ([2]; 37°C): 0.038 ± 0.000 µM
- IC25–IC75 interval cGMP-efflux ([3]; 20°C): 19.2 ± 8.45 µM
- IC25–IC75 interval cGMP-efflux ([3]; 24°C): 11.4 ± 4.73 µM
- IC25–IC75 interval cGMP-efflux ([3]; 28°C): 12.0 ± 1.96 µM
- IC25–IC75 interval cGMP-efflux ([3]; 32°C): 9.76 ± 3.99 µM
- IC25–IC75 interval cGMP-efflux ([3]; 34°C): 13.5 ± 1.74 µM
- IC25–IC75 interval cGMP-efflux ([3]; 37°C): 23.6 ± 9.08 µM
- Protein binding [4]: 94–96%
- Inhibition of cAMP-efflux ([5]; 20°C): neither of the drugs were able to inhibit cAMP-efflux
- Inhibition of cAMP-efflux ([5]; 24°C): neither of the drugs were able to inhibit cAMP-efflux
- IC25–IC75 interval cAMP-efflux ([5]; 28°C): 13.8 ± 3.85 µM
- IC25–IC75 interval cAMP-efflux ([5]; 32°C): 20.0 ± 4.27 µM
- IC25–IC75 interval cAMP-efflux ([5]; 34°C): 19.8 ± 1.82 µM
- IC25–IC75 interval cAMP-efflux ([5]; 37°C): 27.1 ± 9.36 µM

Compound: CCCc1nc(C)c2c(=O)[nH]c(-c3cc(S(=O)(=O)N4CCN(CC)CC4)ccc3OCC)nn12 [Vardenafil]
- IC25–IC75 interval PDE3 ([1]; 20°C): 709 ± 105 µM
- IC25–IC75 interval PDE3 ([1]; 24°C): 148 ± 31.9 µM
- IC25–IC75 interval PDE3 ([1]; 28°C): 128 ± 35.9 µM
- IC25–IC75 interval PDE3 ([1]; 32°C): 107 ± 27.0 µM
- IC25–IC75 interval PDE3 ([1]; 34°C): 72.1 ± 3.24 µM
- IC25–IC75 interval PDE3 ([1]; 37°C): 61.0 ± 14.3 µM
- IC50 ([1]; 20°C): 73.4 ± 26.3 µM
- IC50 ([1]; 24°C): 55.5 ± 4.75 µM
- IC50 ([1]; 28°C): 32.7 ± 11 µM
- IC50 ([1]; 32°C): 40.5 ± 3.78 µM
- IC50 ([1]; 34°C): 24.9 ± 5.73 µM
- IC50 ([1]; 37°C): 16.5 ± 6.08 µM
- Ki ([1]; 20°C): 3.36 ± 1.21 µM
- Ki ([1]; 24°C): 2.54 ± 0.218 µM
- Ki ([1]; 28°C): 1.5 ± 0.505 µM
- Ki ([1]; 32°C): 1.85 ± 0.173 µM
- Ki ([1]; 34°C): 1.14 ± 0.263 µM
- Ki ([1]; 37°C): 0.757 ± 0.276 µM
- IC25–IC75 interval PDE5 ([2]; 20°C): 0.103 ± 0.027 µM
- IC25–IC75 interval PDE5 ([2]; 24°C): 0.074 ± 0.005 µM
- IC25–IC75 interval PDE5 ([2]; 28°C): 0.049 ± 0.016 µM
- IC25–IC75 interval PDE5 ([2]; 32°C): 0.062 ± 0.016 µM
- IC25–IC75 interval PDE5 ([2]; 34°C): 0.028 ± 0.012 µM
- IC25–IC75 interval PDE5 ([2]; 37°C): 0.059 ± 0.029 µM
- IC25–IC75 interval cGMP-efflux ([3]; 20°C): 28.1 ± 14.6 µM
- IC25–IC75 interval cGMP-efflux ([3]; 24°C): 13.0 ± 1.74 µM
- IC25–IC75 interval cGMP-efflux ([3]; 28°C): 10.6 ± 2.75 µM
- IC25–IC75 interval cGMP-efflux ([3]; 32°C): 18.0 ± 4.12 µM
- IC25–IC75 interval cGMP-efflux ([3]; 34°C): 19.2 ± 3.16 µM
- IC25–IC75 interval cGMP-efflux ([3]; 37°C): 12.6 ± 3.89 µM
- Linear regression equation, IC50 inhibition of cGMP-efflux vs temperature ([3]; not told): y = 9.64 − 0.098x
- Inhibition of cAMP-efflux ([5]; 20°C): neither of the drugs were able to inhibit cAMP-efflux
- Inhibition of cAMP-efflux ([5]; 24°C): neither of the drugs were able to inhibit cAMP-efflux
- IC50 ([5]; 28°C): 9.63 ± 5.79 µM
- Ki ([5]; 28°C): 5.84 ± 3.51 µM
- IC25–IC75 interval cAMP-efflux ([5]; 28°C): 17.3 ± 6.59 µM
- IC50 ([5]; 32°C): 13 ± 1.69 µM
- Ki ([5]; 32°C): 7.86 ± 1.02 µM
- IC25–IC75 interval cAMP-efflux ([5]; 32°C): 27.3 ± 6.19 µM
- IC50 ([5]; 34°C): 5.82 ± 0.685 µM
- Ki ([5]; 34°C): 3.53 ± 0.415 µM
- IC25–IC75 interval cAMP-efflux ([5]; 34°C): 19.9 ± 0.967 µM
- IC50 ([5]; 37°C): 5.85 ± 0.51 µM
- Ki ([5]; 37°C): 3.55 ± 0.311 µM
- IC25–IC75 interval cAMP-efflux ([5]; 37°C): 30.9 ± 6.82 µM
- Linear regression equation, IC50 inhibition of cAMP-efflux vs temperature ([5]; not told): y = 26.4 − 0.545x
